Data as given in US20150044144A1, “DISINFECTANT SOLUTION” (RAYMAT MATERIALS, INC., priority 2012, published 2015).
Blank lines part the entries; values can stand above or below the molecule they belong to.

Experiment: Screening stability of different colorants with ORP by UV-Vis
Conditions: 300 ppm colorant; for Colour / UV-vis stability of colorant in ORP solution: 25° C., vs control water solution

Colour / UV-vis stability of colorant in ORP solution (low concentration ORP (30 ppm FAC)): the red color disappeared quickly
SMILES: O=C1OC2(c3ccccc31)c1cc(Br)c(O)c(Br)c1Oc1c2cc(Br)c(O)c1Br [Eosine Free Acid Solvent Red 43 D&C red 21]

Colour / UV-vis stability of colorant in ORP solution (high concentration ORP (100 ppm FAC)): the red color disappeared quickly
SMILES: O=C([O-])c1ccccc1-c1c2cc(Br)c(=O)c(Br)c-2oc2c(Br)c([O-])c(Br)cc12.[Na+].[Na+] [Eosine YS Acid Red 87 D&C red 22]

UV-visible absorbance of the colored ORP solution (high and low FAC ORP solutions, after 10 days): decreased significantly
SMILES: COc1cc(S(=O)(=O)[O-])c(C)cc1N=Nc1c(O)ccc2cc(S(=O)(=O)[O-])ccc12.[Na+].[Na+] [Food dye FD&C red 40]
